Laboratory results as given in patent publication US6562833B1 (priority 1998, dated 2003).

Tests used:
Assay type in all cases: in vivo
[1] = tested on: Puccinia recondita; assay: Comparative Experiment 2 - curative activity against Puccinia recondita on wheat (wheat leaf rust); conditions: potted wheat seedlings c.v. Kanzler, aqueous 250 ppm preparation sprayed the day after inoculation, assessed after 7 days, untreated plants 100% infected
From the text: (§1) The active ingredients were formulated separately or jointly as a 10% emulsion in a mixture of 70% by weight of cyclohexanone, 20% by weight of Nekanil® LN (Lutensol® AP6, wetting agent having emulsifying and dispersant action based on ethoxylated alkylphenols) and 10% by weight of Wettol® EM (nonionic emulsifier based on ethoxylated castor oil) and diluted with water to give the desired concentration.
Leaves of potted wheat seedlings c.v. “Kanzler” were dusted with spores of wheat leaf rust (Puccinia recondita). Thereafter, the pots were kept in a chamber of high atmospheric humidity (90 to 95%), at 20 to 22° C. for 24 hours. During this time, the spores germinated and the germ tubes penetrated into the leaf tissue. The next day, the infected plants were sprayed to runoff point with an aqueous 250 ppm preparation of active compound which had been made up from a stock solution consisting of 10% of active compound, 63% of cyclohexanone and 27% of emulsifier. After the spraycoating had dried on, the test plants were cultivated in a greenhouse at 20-22° C. and 65-70% relative atmospheric humidity for 7 days. The extent of the rust fungus development on the leaves was then determined.

[2] = tested on: Plasmopara viticola; assay: Comparative Experiment 1 - activity against Plasmopara viticola on grapevine leaves (persistency, 500 ppm); conditions: potted grapevines c.v. Müller-Thurgau; aqueous 500 ppm preparation sprayed to runoff; inoculated 7 days after treatment; untreated plants 85% infected
From the text: as §1
Leaves of potted grapevines c.v. “Müller-Thurgau” were sprayed to runoff point with an aqueous 500 ppm preparation of active compound which had been made up from a stock solution comprising 10% of active compound, 63% of cyclohexanone and 27% of emulsifier. To assess the persistency of the substances, the plants were kept for 7 days in a greenhouse after the spray-coating had dried off. Only then were the leaves inoculated with an aqueous zoospore suspension of Plasmopara viticola. The grapevines were then initially kept in a water vapor-saturated chamber at 24° C. for 48 hours and then in a greenhouse at 20-30° C. for 5 days. After this period of time, the plants were once more kept in a humid chamber for 16 hours to promote sporangiophore eruption. The extent of the infection on the undersides of the leaves was then determined visually.

[3] = tested on: Pyricularia oryzae; conditions: potted rice seedlings c.v. TaiNong 67; protective, aqueous 250 ppm preparation; inoculated the next day; assessed after 6 days; untreated plants 90% infected
[4] = tested on: Plasmopara viticola; assay: Comparative Experiment 4 - activity against Plasmopara viticola on grapevine leaves (persistency, 250 ppm); conditions: potted grapevines c.v. Müller-Thurgau; aqueous 250 ppm preparation sprayed to runoff; inoculated 7 days after treatment; untreated plants 85% infected
From the text: as §1
Leaves of potted grapevines c.v. “Müller-Thurgau” were sprayed to runoff point with an aqueous 250 ppm preparation of active compound which had been made up from a stock solution comprising 10% of active compound, 63% of cyclohexanone and 27% of emulsifier. To assess the persistency of the substances, the plants were kept for 7 days in a greenhouse after the spray-coating had dried off. Only then were the leaves inoculated with an aqueous zoospore suspension of Plasmopara viticola. The grapevines were then initially kept in a water vapor-saturated chamber at 24° C. for 48 hours and then in a greenhouse at 20-30° C. for 5 days. After this period of time, the plants were once more kept in a humid chamber for 16 hours to promote sporangiophore eruption. The extent of the infection on the undersides of the leaves was then determined visually.

SMILES | infection (extent of the rust fungus development on the leaves) [1] | infection (extent of the infection on the undersides of the leaves, determined visually) [2] | infection (extent of the development of the disease on the leaves, determined visually) [3] | infection (extent of the infection on the undersides of the leaves, determined visually) [4]
Cc1cc(C#N)nc(Nc2ccccc2)n1 [active compound A] | 100% | 50% |  | 
Cc1cc(C(F)(F)F)nc(Nc2ccccc2)n1 [active compound B] |  |  | 80% | 
Cc1nc(Nc2ccccc2)nc(C(F)(F)F)c1C [I.18] |  |  | 15% | 
CON=Cc1cc(C)nc(Nc2ccccc2)n1 [active compound C] |  |  |  | 60%
Cc1nc(Nc2ccccc2)nc(C#N)c1C [I.9, 4-Cyano-5,6-dimethyl-2-(phenylamino)pyrimidine] | 30% | 5% |  | 
CON=Cc1nc(Nc2ccccc2)nc(C)c1C [I.62, 5,6-Dimethyl-4-(N-methoxyimino)methyl-2-(N-phenylamino)pyrimidine] |  |  |  | 10%
